This passage reports melting point results from US6482822B1, “N-(iminomethyl)amines derivatives, their preparation, their use as medicines and compositions containing them” (Societe de Conseils de Recherches et d'Applications …, priority 1998, dated 2002).

Counter-ions that a name gives are not always drawn. Some results are limits rather than exact numbers.

Broadly, the melting point is the temperature of the solid-liquid transition. Regarding `NC(=Nc1ccc(CCCC(=O)Nc2ccc3[nH]c4ccccc4c3c2)cc1)c1cccs1` (as salt: hydrochloride) [Example 18, 4-(4-{[Amino(2-thienyl)methylidene]amino}phenyl)-N-(9H-carbazol-3-yl)butanamide Hydrochloride], the melting point was above 250 °C.
